Reference: patent US20060234373A1, “Treatment for diabetes” (priority 2002, published 2006)
Marks after values point to notes of the source that are not given here.

Experiments:
normal Wistar rats = assay: Pancreatic insulin content in normal rats treated with TGF-α and gastrin; assay type: in vivo, rat; conditions: 0.8 μg/day each i.p. for 10 days, mean±SEM
Description: Normal Wistar and Zucker rats were allowed normal chow ad libidum with free access to water and were acclimatized for one week prior to initiation of each study. Freshly prepared streptozotocin at a dose of 80 mg/kg body weight was administered by I.V. five to seven days after induction of diabetes, the rats were randomly allocated into groups for subsequent treatment. In examples 1-4, TGF-α and rat gastrin were reconstituted in sterile normal saline containing 0.1% BSA. According to the predetermined treatment schedule for different studies, each animal received a single, daily i.p. injection of either TGF-α or gastrin alone (4.0 μg/kg body weight) or as a 1:1 (w/w) combination (total 8.0 μg/kg) or PBS for a period of 10 days. […]
At the end of the study period (10 days), all animals were sacrificed and samples of pancreas taken as follows: five biopsy specimens (1-2 mg) of pancreatic tissue were taken from separate representative sites in each rat pancreas and immediately snap frozen in liquid nitrogen for analysis of insulin content. […] Pancreatic insulin content values were corrected according to protein content and finally expressed as μg insulin/mg pancreatic protein. All values calculated as mean±SEM and statistical significance evaluated using Student's 2-sample t-test.

isolated human islets = assay: β-cell population of isolated human islets maintained in culture; assay type: cell-based
Description: The purpose of this experiment was to determine whether treatment with EGF and gastrin can increase the β-cell population of human islets in vitro and by what mechanism. Islet cell preparations were isolated from human donor pancreases (n=5) and prepared according to the approved protocol used for preparation of human islets for islet cell transplantation (Lakey JRT et al (1999) Cell transplant 8:285-292, and Ricordi C. et al. (1988) Diabetes 37:413-420). Islet cells were seeded at a concentration of 1×10^6 cells per dish and cultured for 4 weeks in serum free-MEM medium alone or supplemented with EGF (0.3 μg/ml), gastrin (1.0 μg/ml), or EGF+gastrin in combination for 4 weeks and maintained in culture for an additional 4 weeks.

## Gastrin
Normal Wistar rats
  Pancreatic Insulin Content: 51.4 +/− 14.0** μg insulin/mg protein
Isolated human islets; after 4 weeks culture, EGF 0.3 μg/ml, gastrin 1.0 μg/ml, medium alone −60%
  β-cell mass change: −1%
Isolated human islets; human islets in culture
  induction of PDX-1 expression on CK19+ ductal cells: mainly responsible for induction of PDX-1 expression

## TGF-α: recombinant Human TGF-α, an EGF receptor ligand
Normal Wistar rats
  Pancreatic Insulin Content: 30.4 +/− 7.4* μg insulin/mg protein
